Experiment: small volume in vitro release in 50 ml 0.1N HCl
Format: physicochemical
Conditions: 37° C., 150 rpm
Description: The formulations were tested for their small volume in vitro release characteristics in 50 ml 0.1N HCl at 37° C. and 150 rpm using the following procedure: III. Instrumentation (or Equivalent) a. Automated Dissolution System comprising of: Hanson SR8 Plus Test Station Hanson Auto Plus Maximiser System Controller Hanson Auto Plus MultiFill Fraction Collector b. HPLC System comprising of: pump—Merck Hitachi L-7100 autoinjector—Merck Hitachi L-7200 column oven—Merck Hitachi L-7300 detector—Merck Hitachi L-7400 interface and integration software—Merck Hitachi D-7000
0.1N HCl Preparation Dilute 8.5 ml HCl 37% to 1 liter with purified water. Procedure Place one weighed capsule in each vessel containing 0.1N HCl and immediately operate the apparatus for 30 min. Unless otherwise specified, 3 ml samples are withdrawn from each vessel and immediately filtered through PTFE membranes at 15 and 30 min.
The small volume was chosen as a model of the conditions in a fasted stomach.

- dissolution (in words): no dissolution at all
- % dissolved 15 min (15 min): 0%
- % dissolved 30 min (30 min): 0%
SMILES: CC(C)OC(=O)C(C)(C)Oc1ccc(C(=O)c2ccc(Cl)cc2)cc1 [Micronized Fenofibrate]

Reference: patent publication US20070015833A1 (priority 2005, published 2007)
